# Assay results as given in publication PMC12649575, “Assessment of Polymyxin B with Sodium Deoxycholate Sulfate Micelles in a Rat Model to Combat Polymyxin Nephrotoxicity” (Antibiotics, 2025).
# What was measured:
# rat kidney function = assay: Kidney function: serum BUN and creatinine after 7 days of treatment; assay type: in vivo; conditions: after 7 days of 6 mg/kg/day s.c., autoanalyzer, mean ± SD; for Serum creatinine (Cr): n = 5, normal saline 2.08 ± 1.08; for Serum blood urea nitrogen (BUN): n = 5, normal saline 13.8 ± 1.3
# Experimental: After seven days of treatment, the serum levels of blood urea nitrogen (BUN) and Cr were assessed in the rats to investigate their kidney function. […] The PMB group had slightly elevated Cr levels (2.28 ± 0.31 mg/dL) (Figure 2B).
# (§1) The nephrotoxicity experiment of the PMB formulation was performed on 36 male rats that were randomly divided into four groups (n = 9). Randomization was performed using computer-generated random sequences in Microsoft Excel with a fixed seed value to ensure reproducibility. Block randomization was used to balance the number of animals per group. […] The PMB dose of 6 mg/kg/day (expressed as PMB equivalent) was selected based on previous pharmacokinetic and toxicity studies in rats, where this dose consistently produced measurable nephrotoxicity without lethality. […] The average weight gain of each group was recorded for the experiment. We randomized the treatment order and controlled the timing of measurements, and all researchers involved in the study were blinded to the intervention. The animals were euthanized 24 h after the last treatment with an intraperitoneal lethal dose of sodium pentobarbital (200 mg/kg). Blood samples were collected by cardiac puncture, and the serum was separated by centrifugation (3000× g for 15 min) and stored at −80 °C until assayed. Samples of the kidney, liver, spleen, lung, and heart tissues were carefully collected, weighed, and sectioned for histopathological analysis. Histological observation was performed to assess potential tissue damage and evaluate the extent of toxicity following the treatment.
# (§2) The serum levels of SOD and CAT were measured after the 7-day treatment period to investigate the oxidative properties of the treatments. The measurements were carried out using commercial kits according to the manufacturer’s instructions.
# male Sprague-Dawley rats [1] = assay: Serum oxidative stress biomarkers SOD and CAT after 7 days of treatment; assay type: in vivo; conditions: rat serum, after 7 days of 6 mg/kg/day s.c., commercial kit, mean ± SD, n = 5; for Serum catalase (CAT) level: control 22.4 ± 3.79; for Serum superoxide dismutase (SOD) level: normal saline 37.36 ± 3.4
# Experimental: The serum levels of superoxide dismutase (SOD) and Catalase (CAT) in rats were analyzed to evaluate and compare the oxidative stress induced by the treatments. […] No significant reductions were detected in the serum SOD levels of the SDCS (38 ± 3.17 U/mL) and formulation (34.73 ± 5.17 U/mL) groups. […] The serum CAT levels in the treated rats followed a trend similar to that observed for the SOD levels (Figure 2D).
# as §1, §2
# [2] = system: rat kidney, liver, lung and spleen tissue; assay: Histopathological examination (H&E) of kidney, liver, lung and spleen; assay type: in vivo; conditions: 7 days of 6 mg/kg/day s.c., result in words
# Experimental: An H&E assay was performed on the collected tissues of all animals to evaluate PMB-induced nephrotoxicity and organ damage. The kidney histopathological results from the H&E assay of the renal cortex and medulla in the treated animals are shown in Figure 3.
# Liver histopathological alterations in the central vein area and portal triad area of the treated rats are shown in Figure 4A and Figure 4B, respectively.
# Histopathological alterations in the spleen tissue of the treated animals were also examined (Figure 4D).
# as §1
# Excess fat from the kidney, liver, spleen, lung, and heart tissues was removed through dissection and trimming. All samples were preserved in 10% buffered formalin using a fixative volume at least 10 times the tissue volume for three days. Subsequently, the tissues were dehydrated through a graded series of ethanol (70%, 80%, 95%, and 100%) using a tissue processor (LEICA TP 1020, Leica Microsystems GmbH, Wetzlar, Germany), with each concentration step lasting for 60 min. Following this, the tissues were embedded in Paraplast blocks using a tissue embedder (LEICA EG 1160, Leica Microsystems GmbH, Wetzlar, Germany). Thin sections that measured 5 μm in thickness were obtained using an automatic microtome. The slides were stained with Harris’ hematoxylin and eosin (H&E) and examined under an Olympus DP73 microscope (Olympus, Tokyo, Japan) equipped with cellSens software version 6.1.4.2. Histopathological analysis was performed by an investigator who was blinded to the treatment groups.
# [3] = PMB serum concentration after a single subcutaneous dose (LC-MS); assay type: in vivo; conditions: rat, single 6 mg/kg s.c., 4 h post-dose, PMB after protein precipitation, mean ± SD, n = 4
# Excerpt: (§3) The serum concentrations reported represent the free (unbound) PMB fraction determined after protein precipitation and filtration, which is the pharmacologically active component.
# (§4) For the biodistribution study, a sample size of four rats per group was chosen as a preliminary exploratory analysis to determine major organ distribution trends. This sample size was consistent with previous biodistribution studies involving polymyxins and sufficient to identify statistically meaningful differences in renal accumulation [7]. […] PMB concentrations were measured in LC-MS for free (unbound) fraction of serum and tissue homogenates after protein precipitation.
# (§5) The PMB was quantified using an LC-MS/ion trap time-of-flight system (Shimadzu, Tokyo, Japan) equipped with a C18 column (2.1 mm id × 150 mm, 2.7 µm particle size; Thermo Fisher Scientific, Scoresby, Australia). […] A quantity of 400 µL of supernatant was added to 600 µL of the mobile phase. A known amount of standard PMB in blank serum was prepared using the same method to produce a calibration curve of PMB and quantification was performed using colistin sulfate (1 µg/mL) as the internal standard. The monitored mass transitions were m/z 602.4 → 101.1 for PMB and m/z 585.5 → 101.1 for colistin. […]
# [4] = cited from earlier work
# Excerpt: Nephrotoxicity remains a significant challenge for PMB. The prevalence of nephrotoxicity ranges from 10% to 60% despite the effectiveness of PMB in treating multidrug-resistant Gram-negative bacterial infections. The amphipathic properties of polymyxins are also responsible for their nephrotoxicity where the cationic diaminobutyric acid (Dab) residues of PMB interact with anionic phospholipids (e.g., phosphatidylinositol, cardiolipin) on the membranes of renal tubular cells. This electrostatic interaction, combined with the insertion of the lipophilic tail into the lipid bilayer, dis ... || PMB undergoes extensive reabsorption in the renal tubule, and a very high concentration of PMB is found in human renal tubular cells compared to the extracellular concentration. The increased accumulation of PMB leads to cell swelling and lysis by disrupting the permeability of the renal tubular epithelial cell membrane. In our results, the administration of the PMB formulation increased the serum concentration profile of PMB.
# male Sprague-Dawley rats [5] = assay: Body weight and body weight gain in the 7-day nephrotoxicity study; assay type: in vivo; conditions: rat
# Experimental: After seven days of treatment with 6 mg/kg of the PMB and PMB formulation, the weight progression of the rats in each group was measured and recorded. All 36 rats successfully acclimated and reached the target body weight of 110 g within the 7-day period. No animals were excluded from the study. The results in Figure 1A show the weight changes measured on day 0, day 4, and day 7 of administration.
# The animal study was approved by the Animal Ethics Committee of Prince of Songkla University (Project License No. MHESI 68014/675, Ref. AR042/2024). The animals were housed in a controlled environment with a temperature of 22 ± 2 °C, relative humidity of 50 ± 10%, and a 12/12-h light/dark cycle. They were provided with a standard laboratory rodent diet and water ad libitum. The study was conducted on male outbred Sprague-Dawley rats (5–7 weeks old, 130–170 g) that were obtained from the National Laboratory Animal Center, Mahidol University, Nakorn Pathom, Thailand. The rats were fed the standard feed protocol by the Southern Laboratory Animal Facility, Faculty of Sciences, Prince of Songkla University. Rats were allowed to acclimate for 7 days prior to the experiment.
# as §1, with “Blood samples were collected by cardiac puncture, and the serum was separated by centrifugation (3000× g for 15 min) and stored at −80 °C until assayed. Samples of the kidney, liver, spleen, lung, and heart tissues were carefully collected, weighed, and sectioned for histopathological analysis. Histological observation was performed to assess potential tissue damage and evaluate the extent of toxicity following the treatment.” left out
# [6] = PMB biodistribution in organs 24 h after subcutaneous dose (LC-MS); assay type: in vivo; conditions: rat, 6 mg/kg s.c., kidney homogenate 24 h post-dose, mean ± SD, n = 4
# Excerpt: as §3, §4, §5
Substance,Serum creatinine (Cr) (rat kidney function) [mg/dL],Serum blood urea nitrogen (BUN) (rat kidney function) [mg/dL],Serum catalase (CAT) level (male Sprague-Dawley rats [1]) [nmol/min/mL],Serum superoxide dismutase (SOD) level (male Sprague-Dawley rats [1]) [U/mL],Kidney histopathology (renal cortex and medulla) [2],Liver histopathology (central vein and portal triad area) [2],Lung histopathology [2],Spleen histopathology [2],PMB serum concentration at 4 h [3] [µg/mL],Urinary recovery ([4]; animal models) [%],PMB kidney/serum concentration ratio ([4]; another study) [fold],"Body weight gain compared with control (male Sprague-Dawley rats [5]; 6 mg/kg/day s.c. for 7 days, n = 9, result in words)","Body weight on day 4 (male Sprague-Dawley rats [5]; 6 mg/kg/day s.c., day 4 of 7, mean ± SD, n = 9, normal saline group 180.0 ± 11.83 g) [g]","Body weight on day 7 (male Sprague-Dawley rats [5]; 6 mg/kg/day s.c., day 7, mean ± SD, n = 9, normal saline group 207.5 ± 11.62 g) [g]",PMB concentration in the kidneys after 24 h [6] [µg/g]
Sodium Deoxycholate sulfate [SDCS],2.06 ± 0.32,14.4 ± 2.07,22.25 ± 6.38,38 ± 3.17,normal,normal hepatic tissues,normal lung tissue,normal white and red pulp,,,,,,,
Polymyxin B [PMB],2.28 ± 0.31,16.56 ± 1.59,9.5 ± 7.91,22.87 ± 8.1,Deformation of the glomeruli and congestion of the renal blood vessels,significant monocyte infiltration accompanied by loss of hepatocyte architecture and the presence of necrotic foci around the blood vessels,endothelial damage that was evidenced by an increased number of small pulmonary venules containing fibrin thrombi,numerous multinucleated giant cells,2.94 ± 0.23,< 5,18,significant reduction in body weight gain,163.89 ± 15.37,191.67 ± 15.83,3.73 ± 0.89
